What was measured:
[1] = test system: C57BL/6 skin grafts on BALB/c mice; experiment: Skin allograft rejection in mice; format: in vivo
Method: The effect of H-9392 was also tested in skin graft rejection experiments in mice. In particular, skin grafts from C57BL/6 donor mice (H-2^b) were applied to recipient BALB/c mice (H-2^d) according to the method of Baharav, E. et al. J. Immunol. Methods (1986) 90:143-144. The number of days to rejection was measured by the sloughing of the graft. The number of days to rejection was determined for a control group (injected with saline only, 0.1 ml), and test groups that received 3 ng or 300 ng of H-9392 by subcutaneous injection one day before grafting and weekly thereafter. The results, which are graphically represented in FIGS. 40 and 40A, reveal that the 3 ng/mouse dose delayed the level of skin graft rejection at 50% by 5 days!

[2] = test system: secretion of active TNF-α by activated human CD4+ T cells; experiment: Bioassay of TNF-α activity using human CD4+ T cells derived from PBLs (human PBL bioassay); details: conc range of 1 µg/ml - 0.01 pg/ml; inconsistent = not the same result in all three bioassays

O=C(O)C1=C[C@H](O)[C@@H](OS(=O)(=O)O)[C@H](O[C@H]2[C@H](O)[C@@H](NS(=O)(=O)O)C(O)O[C@@H]2CO)O1 (stereo partly drawn) [H-9392, 2-O-sulfate-4-deoxy-4-en-iduronic acid-(α-1,4)-2-deoxy-2-N-sulfateglucosamine]
delay of the level of skin graft rejection at 50% ([1]; 3 ng/mouse s.c. one day before grafting and weekly thereafter): 5 days
difference at 50% rejection relative to control, in words ([1]; 300 ng/mouse s.c. one day before grafting and weekly thereafter): failed to produce a significant difference
Bioassay of TNF Activity, in words [2]: Inconsistent
